The subject of one assay is DKO^IEC mouse tumors. In words: TGF-βR1-specific inhibition experiment (galunisertib) in DKO^IEC mice. It counts as in vivo. As for the experimental part: For CD8+ T cell depletion (FIG. 4, Panels A-L), 10-week-old LKO^IEC mice were injected intraperitoneally with 200 μg of anti-CD8 antibody (clone 2.43) or control IgG twice a week for 5 weeks until they were sacrificed. For the TGF-βR1-specific inhibition experiment, 10-week-old DKO^IEC mice were treated twice a day with a dose of 10 mg of galunisertib (Tauriello et al., 2018) per os for 6 weeks until they were sacrificed. Control mice were treated with vehicle. For checkpoint immunotherapy, either 10-week-old or 13-week-old DKO^IEC mice were injected intraperitoneally with a dose of 10 mg/kg (body mass) of anti-PD-L1 antibody (clone 6E11) twice a week for 3 weeks until they were sacrificed. For the combination therapy of anti-PD-L1 antibody and TGF-βR1-specific inhibitor, 23-week-old DKO^IEC mice were treated twice a day with a dose of 10 mg of galunisertib per os and injected intraperitoneally with a dose of 10 mg/kg (body mass) of anti-PD-L1 antibody twice a week for 3 weeks until they were sacrificed. Anti-PD-L1 antibody was provided by de Sauvage FJ (Genentech).
Organs were isolated, rinsed in ice-cold PBS, fixed in 10% neutral buffered formalin overnight at 4° C., dehydrated, and embedded in paraffin. Sections (5 μm) were stained with hematoxylin and eosin (H&E). For immunohistochemistry, sections were deparaffinized, rehydrated, and then treated for antigen retrieval. After blocking in Protein Block Serum-Free solutions (DAKO), tissues were incubated with primary antibody overnight at 4° C. followed by incubation with biotinylated secondary antibody. Endogenous peroxidase was quenched in 3% H2O2 in water for 10 min at room temperature. Antibodies were visualized with avidin/biotin complex (e.g., Vectastain Elite; Vector Laboratories) using diaminobenzidine as the chromogen. For immunofluorescence, fresh frozen organs were embedded in Tissue-Tek OCT compound (e.g., Sakura) and section of 10 μm were fixed in methanol, washed with PBS and then incubated with the primary antibodies. Washed sections were incubated with Alexa-conjugated secondary antibodies (e.g., Life Technologies) and examined with a Zeiss LSM 710 NLO Confocal Microscope. In situ hybridization for murine Ereg was carried out using RNAscope Multiplex Fluorescent Assay kit (Advanced Cell Diagnostics) following manufacturer's instructions. The probe corresponding to CDS region of murine Ereg (Accession #: NM_007950.2, probe region: 116-1496; Advanced Cell Diagnostics; Cat #: 437981). Cell death was analyzed using the In-Situ Cell Death Detection kit, TMR red (Thermo) for TUNEL. Masson's Trichrome staining was carried out following manufacturer's instructions (Sigma HT15-1KT).
Flow cytometry experiments were performed using fresh small intestinal tissue and organoid preparations. For the analyses of small intestinal tissue, a half part of duodenum, jejunum, and ileum was used for quantitative flow cytometry analysis of immune cell population of lamina propria. Briefly, small intestines were rinsed in cold PBS, minced into small pieces, incubated in HBSS with EDTA (5 mM) and digested with collagenase (0.05 mg/ml) for 30 min at 37° C., followed by a discontinuous Percoll separation method (40 and 75%) to purify immune cells. The cells concentrated at the interface were collected and washed in cold PBS. Red blood cells were removed with lysing buffer (BD Pharm Lyse) and live cells were counted using Trypan blue and then saturated with mouse Fc Block (purified anti-mouse CD16/CD32; 1:50; clone 2.4G2; BD Pharmingen) 30 min at 4° C. before incubating with specific dyed antibodies.
For IL-17A intracellular staining, cells were pretreated with 50 ng/ml of phorbolmyristate acetate and 500 ng/ml of ionomycin in the presence of 10 μg/ml of brefeldin A for 3 hr at 37° C. 5% CO2. […]

Assay [1] deals with serrated aPKC-DKO^IEC tumors. In words: PVHA treatment of aPKC-DKO^IEC mice. It counts as in vivo, mouse. The protocol: Mice treatment with PVHA: For the hyaluronidase-specific inhibition experiment, 11-week-old aPKC-DKO^IEC mice were injected intravenously twice per week with a low dose of 0.0375 mg or high dose of 0.2 mg/Kg of PVHA (Halozyme) for 3 weeks until they were sacrificed. Control mice were treated with vehicle.
Histology, immunohistochemistry: Organs were isolated, rinsed in ice-cold PBS, fixed in 10% neutral buffered formalin overnight at 4° C., dehydrated, and embedded in paraffin. For Masson TriChrome staining, the sections (5 μm) were deparaffinized, rehydrated, and then stained with the Trichrome Stain (Masson) Kit (Sigma-Aldrich, #HT15) following the manufacturer's instructions. For hyaluronan staining, sections (5 μm) were deparaffinized, rehydrated, and then incubated with biotinylated hyaluronan binding protein (Millipore Sigma, #385911) overnight at 4° C., followed by incubation with streptavidin HRP conjugate (Invitrogen, #434323). Staining was developed using diaminobenzidine. For CD8 staining, sections (5 μm) were deparaffinized, rehydrated, and then treated for antigen retrieval (Citrate, pH6) with heat. After blocking in Protein Block Serum-Free solutions (DAKO), tissues were incubated with primary antibody (anti-mouse CD8 (BD, #557654) overnight at 4° C. followed by incubation with biotinylated secondary antibody. Endogenous peroxidase was quenched in 3% H2O2 in water for 10 min at room temperature. Antibodies were visualized with avidin/biotin complex (Vectastain Elite; Vector Laboratories) using diaminobenzidine as the chromogen.

The next assay deals with WT organoids. In words: interferon response of WT small intestine organoids to 5-AZA-CdR. It is filed as cell-based, mouse. The protocol:
(§1) For generation of small intestine organoids, organoids were collected in ice-cold TrypLE solution (e.g., Life Technologies) to remove Matrigel, then pipetted 5 cycles and incubated 5 min at 37° C. to obtain single-cell suspension. Cells were washed twice in PBS 3% FBS and resuspended at room temperature with PBS with 100 μg/ml DNase I for 10 min before staining with anti-H-2Kb (clone AF6-88.5.5.3; eBioscience). For antigen presentation in MODE-K cells, cells were washed in PBS, trypsinized and wash with warm medium. Then, cells were resuspended and stained with anti-H-2Kk (clone 36-7-5; BioLegend) and anti-H-2Dk (clone 15-5-5; BD Pharmingen). Dead cells were excluded after 7-AAD staining. All flow cytometry experiments were performed on a BD LSRFortessa 14-colors analyzer at the Sanford Burnham Prebys Medical Discovery Institute Shared FACS Facility and flow cytometry data were analyzed using FlowJo software (Tree Star Inc.).
(§2) Intestinal epithelial cell […] isolation was performed as described previously Llado et al., Repression of Intestinal Stem Cell Function and Tumorigenesis through Direct Phosphorylation of β-catenin and Yap by PKCζ. Cell Reports (2015) 10,740-754, with some modification. […] Adenoma fragments were counted after isolation and a total of 250-500 fragments were mixed with 100 μl of growth factor reduced-Matrigel and plated in 12- or 24-well plates. […]

For another assay, the system named is ZKO organoids. In words: interferon response of ZKO (PKCζ-lacking) small intestine organoids to 5-AZA-CdR. It is filed as cell-based, mouse. The protocol: as §1, §2
[2] abbreviates: 10-week-old DKO^IEC mice, 10 mg per os twice a day for 6 weeks.
[3] abbreviates: aPKC-DKO^IEC mice, i.v. twice per week for 3 weeks from week 11.
The mark [4] stands for this setting: 3 μM for 24 hours, then drug-free culture, qRT-PCR.

“Also recorded” adds a separate entry of the source.

As to `Cc1cccc(-c2nn3c(c2-c2ccnc4ccc(C(N)=O)cc24)CCC3)n1` [galunisertib], in the assay on DKO^IEC mouse tumors (setting [2]), the “incidence of invasive cancer” value is “reduced”, the “progression of SSA/P to the adenocarcinoma stage” value is “suppressed”, the tumor load result is on record as “did not reduce” and the tumor number entry is recorded as “did not reduce”. In addition, the tumor size result with DKO^IEC mouse tumors (setting [2]) is recorded as “did not reduce”. The “proportion of PD-L1+/CD45+ cells infiltrating DKO^IEC tumors” value with DKO^IEC mouse tumors (CD45/PD-L1 staining) is given as “not affected”. In addition, the collagen deposition result in the assay on DKO^IEC mouse tumors (Masson's trichrome staining of small intestinal tumors, DKO^IEC mice) is “inhibition”. Moreover, in the assay with DKO^IEC mouse tumors (flow cytometry, DKO^IEC tumors), the “proportion of CD8+ T cells” value is “did not significantly change”, the “proportion of CD11b+ myeloid cells” value is listed as “did not significantly change”, the “proportion of Th17 cells in the tumors” value is recorded as “reduction” and the “proportion of Treg cells” value is “did not significantly change”. Besides, in the assay with DKO^IEC mouse tumors (qRT-PCR mRNA levels, DKO^IEC mice), the “expression of TGF-β-responsive genes, such as Angptl2, Cdkn2b, Il11, and Ereg” value is on record as “reduced expression”. Besides, the “stromal phospho-SMAD2” value with DKO^IEC mouse tumors (staining of small intestinal tumors, DKO^IEC mice) is reported as “inhibition”.
Take Pegvorhyaluronidase alfa [PVHA]: the “progression of SSA/Ps to the adenocarcinoma stage” value in assay [1] (11-week-old aPKC-DKO^IEC mice, i.v. twice per week for 3 weeks, low and high dose) is listed as “suppressed”. In addition, in assay [1] (CD8 staining of small intestinal tumors, compared to vehicle-treated samples), the “number of CD8+ T cells stained in the tumor tissue (infiltration of CD8+ T cells)” value is listed as “substantially increased; also recorded: increases”. For the same compound, in assay [1] (Masson trichrome staining of small intestinal tumors), the “collagen deposition in the tumors” value is given as “reduced”. Also, in assay [1] (setting [3]), the tumor load result was “reduced”, the tumor number entry is given as “reduced” and the tumor size result is “reduced”. In addition, in assay [1] (figure legends FIG. 17 and FIG. 18), the “serrated tumors in aPKC-DKO^IEC mice” value was “reduces”. Further, the “incidence of invasive cancer” value in assay [1] (high dose of 0.2 mg/Kg, i.v. twice per week for 3 weeks from week 11) is on record as “reduced”. In addition, in assay [1] (high dose of PVHA), the tumor burden result is listed as “reduce tumor burden substantially”. In assay [1] (hyaluronan staining of small intestinal tumors, low dose of PVHA (0.0375 mg/kg)), the “hyaluronan deposition in the tumors” value is “reduced”. Moreover, in assay [1] (low dose of 0.0375 mg, i.v. twice per week for 3 weeks from week 11), the “incidence of invasive cancer” value is on record as “reduced”. Also, the tumor burden result in assay [1] (low dose of PVHA) is given as “reduce tumor burden substantially”.
Regarding `Nc1ncn([C@H]2C[C@H](O)[C@@H](CO)O2)c(=O)n1` [5-AZA-CdR, 5-aza-2-deoxycytidine], the “expression of interferon-responsive genes Irf7, Oas1a, Isg15, and Cxcl10” value is “robustly induced” with WT organoids (setting [4]) and “severely abrogated” in the assay on ZKO organoids (setting [4]). The entries for the “MHC class I long-chain H-2K^b on the surface” value with WT organoids (flow cytometry) and in the assay on ZKO organoids (flow cytometry) were “upregulated” and “but not on ZKO organoids”, respectively.

The values are drawn from patent US20230364205A1, “COMPOSITIONS AND METHODS FOR TREATING SERRATED COLORECTAL CANCER” (SANFORD BURNHAM PREBYS MEDICAL DISCOVERY INSTITUTE, priority 2020, published 2023).
